In brackets after ≈: the same amount, converted by molar mass.
Columns and labels:
Assay in all cases: ≥ marks a high value that may be exact or a test limit, other limits are often not marked, values filed in µg/mL are converted to µM
[1] = system: Streptococcus pyogenes GAS M1T1
Escherichia coli BL21 = system: Escherichia coli BL21
[2] = system: Xanthomonas axonopodis pv. phaseoli ATCC 9563
[3] = system: Pseudomonas aeruginosa PAO1
Pseudomonas syringae = system: Pseudomonas syringae
[4] = system: Bacillus subtilis ATCC 6633
[5] = system: Pseudomonas aeruginosa ATCC 10662
[6] = system: Staphylococcus epidermidis ATCC 1435
[7] = system: Klebsiella pneumoniae ATCC 27736
Acinetobacter baumannii = system: Acinetobacter baumannii
Staphylococcus aureus = system: Staphylococcus aureus
[8] = system: Pseudomonas aeruginosa ATCC BAA-427
Candida tropicalis = system: Candida tropicalis
[9] = system: Staphylococcus aureus ATCC 25923
Candida glabrata = system: Candida glabrata
Candida albicans = system: Candida albicans
[10] = system: Staphylococcus aureus ATCC 12493
[11] = system: Staphylococcus aureus NCTC 10788
[12] = system: Escherichia coli NCTC 10418
[13] = system: Candida albicans NCPF 1467
[14] = system: Staphylococcus epidermidis
[15] = system: Pseudomonas aeruginosa ATCC 27853
Escherichia coli B = system: Escherichia coli B
Pseudomonas aeruginosa = system: Pseudomonas aeruginosa
[16] = system: Staphylococcus aureus ATCC 43300
[17] = system: Candida albicans F7-39/IDE99
Bacillus subtilis 168 = system: Bacillus subtilis 168
[18] = system: Micrococcus luteus CCM 144
Staphylococcus aureus 1 = system: Staphylococcus aureus 1
[19] = system: Streptococcus sobrinus ATCC 6715
[20] = system: Streptococcus mutans UA159
[21] = system: Streptococcus sanguinis ATCC 10556
[22] = system: Staphylococcus aureus NCTC 8325-4
Escherichia coli K-12 = system: Escherichia coli K-12
Klebsiella pneumoniae = system: Klebsiella pneumoniae

CC[C@H](C)[C@H](NC(=O)[C@H](CCC(=O)O)NC(=O)[C@H](CC(N)=O)NC(=O)[C@H](CCCCN)NC(=O)[C@H](CC(C)C)NC(=O)[C@H](Cc1ccc(O)cc1)NC(=O)[C@H](CCCCN)NC(=O)[C@H](CCCN=C(N)N)NC(=O)[C@@H](NC(=O)[C@@H](NC(=O)[C@H](CCC(=O)O)NC(=O)[C@H](CCCCN)NC(=O)[C@H](Cc1c[nH]c2ccccc12)NC(=O)[C@H](C)N)[C@@H](C)O)[C@@H](C)CC)C(=O)N[C@@H](CCCCN)C(=O)N[C@@H](CCCCN)C(=O)N[C@@H](CCCCN)C(=O)N[C@@H](Cc1c[nH]c2ccccc12)C(=O)N[C@@H](CCCN=C(N)N)C(=O)N[C@@H](CCCCN)C(=O)N[C@@H](C)C(=O)N[C@H](C(=O)N[C@H](C(=O)N[C@@H](C)C(=O)N[C@@H](Cc1c[nH]c2ccccc12)C(=O)O)[C@@H](C)CC)C(C)C [AWKETIRKYLKNEIKKKWRKAVIAW]
MIC [1]: 10 µM (≈ 31.9 µg/mL)
MIC (Escherichia coli BL21): 2 µM (≈ 6.38 µg/mL)
MIC [2]: 2 µM (≈ 6.38 µg/mL)
MIC [3]: 8 µM (≈ 25.5 µg/mL)
MIC (Pseudomonas syringae): 8 µM (≈ 25.5 µg/mL)

CC[C@H](C)[C@H](NC(=O)[C@H](CCCCN)NC(=O)[C@H](CC(N)=O)NC(=O)[C@H](CCCCN)NC(=O)[C@H](CC(C)C)NC(=O)[C@H](Cc1ccc(O)cc1)NC(=O)[C@H](CCC(N)=O)NC(=O)[C@H](CCCN=C(N)N)NC(=O)[C@@H](NC(=O)[C@@H](NC(=O)[C@H](CCC(=O)O)NC(=O)[C@H](CCCCN)NC(=O)[C@H](Cc1c[nH]c2ccccc12)NC(=O)[C@H](C)N)[C@@H](C)O)[C@@H](C)CC)C(=O)N[C@@H](CCCCN)C(=O)N[C@@H](CCCCN)C(=O)N[C@@H](CCCCN)C(=O)N[C@@H](Cc1c[nH]c2ccccc12)C(=O)N[C@@H](CCCN=C(N)N)C(=O)N[C@@H](CCCCN)C(=O)N[C@@H](C)C(=O)N[C@H](C(=O)N[C@H](C(=O)N[C@@H](C)C(=O)N[C@@H](Cc1c[nH]c2ccccc12)C(=O)O)[C@@H](C)CC)C(C)C [AWKETIRQYLKNKIKKKWRKAVIAW]
MIC [1]: 10 µM (≈ 31.9 µg/mL)
MIC (Escherichia coli BL21): 2 µM (≈ 6.37 µg/mL)
MIC [2]: 1 µM (≈ 3.19 µg/mL)
MIC (Pseudomonas syringae): 8 µM (≈ 25.5 µg/mL)

CC[C@H](C)[C@H](NC(=O)[C@H](Cc1cnc[nH]1)NC(=O)[C@H](Cc1cnc[nH]1)NC(=O)[C@H](Cc1ccccc1)NC(=O)[C@@H](N)Cc1ccccc1)C(=O)N[C@@H](Cc1ccccc1)C(=O)N[C@@H](CCCN=C(N)N)C(=O)NCC(=O)N[C@@H](C)C(=O)N[C@H](C(=O)N[C@@H](Cc1cnc[nH]1)C(=O)N[C@H](C(=O)NCC(=O)N[C@@H](CCCCN)C(=O)N[C@H](C(=O)N[C@H](C(=O)N[C@@H](Cc1cnc[nH]1)C(=O)N[C@@H](CCCN=C(N)N)C(=O)N[C@@H](CC(C)C)C(=O)N[C@H](C(=O)N[C@H](C(=O)NCC(N)=O)[C@@H](C)O)C(C)C)[C@@H](C)CC)[C@@H](C)O)C(C)C)C(C)C [FFHHIFRGAVHVGKTIHRLVTG]
MIC [4]: 8 µM (≈ 20.2 µg/mL)
MIC [5]: 9.88 µM (≈ 25 µg/mL)
MIC [6]: 0.593 µM (≈ 1.5 µg/mL)
MIC [7]: 6 µM (≈ 15.2 µg/mL)
MIC (Acinetobacter baumannii): 1.23 µM (≈ 3.1 µg/mL)
MIC (Staphylococcus aureus): 1.23 µM (≈ 3.1 µg/mL)
MIC [8]: 10 µM (≈ 25.3 µg/mL)

CC(C)C[C@H](NC(=O)[C@H](CC(N)=O)NC(=O)[C@H](CCCN=C(N)N)NC(=O)[C@H](Cc1ccccc1)NC(=O)[C@@H](N)Cc1ccccc1)C(=O)N[C@@H](Cc1c[nH]c2ccccc12)C(=O)N[C@@H](CCCCN)C(=O)NCC(=O)N[C@@H](C)C(=O)N[C@@H](CCCCN)C(=O)N[C@@H](C)C(=O)N[C@@H](C)C(=O)N[C@@H](Cc1ccccc1)C(=O)N[C@@H](CCCN=C(N)N)C(=O)N[C@@H](C)C(=O)NCC(=O)N[C@@H](Cc1cnc[nH]1)C(=O)N[C@@H](C)C(=O)N[C@@H](C)C(=O)N[C@@H](Cc1c[nH]c2ccccc12)C(=O)N[C@@H](CCCN=C(N)N)C(=O)N[C@@H](C)C(=O)O [FFRNLWKGAKAAFRAGHAAWRA]
MIC [5]: 19.7 µM (≈ 50 µg/mL)
MIC [6]: 0.616 µM (≈ 1.56 µg/mL)
MIC (Candida tropicalis): 2.47 µM (≈ 6.25 µg/mL)
MIC (Acinetobacter baumannii): 2.47 µM (≈ 6.25 µg/mL)
MIC [9]: 1.23 µM (≈ 3.12 µg/mL)
MIC (Staphylococcus aureus): 1.23 µM (≈ 3.12 µg/mL)
MIC (Candida glabrata): ≥ 39.5 µM
MIC (Candida albicans): 2.47 µM (≈ 6.25 µg/mL)

CC(C)C[C@H](NC(=O)[C@H](CC(C)C)NC(=O)[C@H](CCCCN)NC(=O)[C@@H]1CCCN1C(=O)[C@H](CC(C)C)NC(=O)[C@@H](N)Cc1ccccc1)C(=O)N[C@@H](C)C(=O)NCC(=O)N[C@@H](CC(C)C)C(=O)N1CCC[C@H]1C(=O)N[C@@H](CO)C(=O)N[C@@H](Cc1ccccc1)C(=O)N[C@@H](CC(C)C)C(=O)N[C@H]1CSSC[C@@H](C(=O)O)NC(=O)[C@H](CCCCN)NC(=O)[C@H](CCCCN)NC(=O)[C@H](Cc2ccccc2)NC(=O)[C@H](C(C)C)NC(=O)[C@H](CC(C)C)NC1=O [FLPKLLAGLPSFLCLVFKKC]
MIC [10]: 8 µM (≈ 17.9 µg/mL)
MIC [11]: 16 µM (≈ 35.8 µg/mL)
MIC [12]: 16 µM (≈ 35.8 µg/mL)
MIC [13]: 8 µM (≈ 17.9 µg/mL)

CC[C@H](C)[C@H](NC(=O)CN)C(=O)N[C@@H](CCSC)C(=O)N[C@@H](CO)C(=O)N[C@@H](CO)C(=O)N[C@@H](CC(C)C)C(=O)N[C@@H](CCSC)C(=O)N[C@@H](CCCCN)C(=O)N[C@@H](CCCCN)C(=O)N[C@@H](CC(C)C)C(=O)N[C@@H](C)C(=O)N[C@@H](CCCCN)C(=O)N[C@H](C(=O)N[C@H](C(=O)N[C@@H](C)C(=O)N[C@@H](CCCCN)C(N)=O)[C@@H](C)CC)[C@@H](C)CC [GIMSSLMKKLAKIIAK]
MIC [14]: 5 µM (≈ 8.66 µg/mL)
MIC [15]: 4.5 µM (≈ 7.79 µg/mL)
MIC (Escherichia coli B): 3.7 µM (≈ 6.41 µg/mL)
MIC (Pseudomonas aeruginosa): 9.3 µM (≈ 16.1 µg/mL)
MIC [16]: 9 µM (≈ 15.6 µg/mL)
MIC [17]: 11 µM (≈ 19 µg/mL)
MIC (Bacillus subtilis 168): 7 µM (≈ 12.1 µg/mL)
MIC (Staphylococcus aureus): 10 µM (≈ 17.3 µg/mL)
MIC [18]: 3 µM (≈ 5.19 µg/mL)
MIC (Staphylococcus aureus 1): 5.2 µM (≈ 9 µg/mL)

CC(C)[C@H](NC(=O)[C@H](CCCCN)NC(=O)[C@H](C)NC(=O)[C@H](C)NC(=O)[C@H](CCCCN)NC(=O)[C@H](CCCCN)NC(=O)[C@H](Cc1ccccc1)NC(=O)[C@H](Cc1ccccc1)NC(=O)[C@H](CCCCN)NC(=O)[C@H](CCCCN)NC(=O)[C@H](Cc1c[nH]c2ccccc12)NC(=O)CN)C(=O)NCC(=O)N[C@@H](CCCCN)C(=O)O [GWKKFFKKAAKVGK]
MIC [19]: ≥ 315 µM
MIC [20]: ≥ 315 µM
MIC [21]: ≥ 315 µM

NCCCC[C@H](NC(=O)CNC(=O)[C@H](Cc1ccccc1)NC(=O)[C@H](CCCCN)NC(=O)[C@H](Cc1ccccc1)NC(=O)[C@H](Cc1ccccc1)NC(=O)[C@H](CCCCN)NC(=O)[C@H](CCCCN)NC(=O)[C@H](Cc1ccccc1)NC(=O)[C@H](Cc1ccccc1)NC(=O)[C@H](CCCCN)NC(=O)CNC(=O)[C@@H](N)Cc1c[nH]c2ccccc12)C(=O)O [WGKFFKKFFKFGK]
MIC [19]: 18.9 µM (≈ 32 µg/mL)
MIC [20]: 18.9 µM (≈ 32 µg/mL)
MIC [21]: 18.9 µM (≈ 32 µg/mL)

NCCCC[C@H](NC(=O)[C@H](CCCCN)NC(=O)[C@H](Cc1c[nH]c2ccccc12)NC(=O)[C@H](Cc1c[nH]c2ccccc12)NC(=O)[C@H](CCCCN)NC(=O)[C@H](CCCCN)NC(=O)[C@@H](N)Cc1c[nH]c2ccccc12)C(=O)N[C@@H](Cc1c[nH]c2ccccc12)C(N)=O [WKKWWKKW]
MIC [22]: ≥ 62.5 µM
MIC (Escherichia coli K-12): 31.3 µM (≈ 39.9 µg/mL)
MIC (Klebsiella pneumoniae): 250 µM (≈ 319 µg/mL)
MIC [3]: > 250 µM

From DBAASP
